Experimental data taken from patent publication US20080113908A1, “Use of CRF receptor agonists for the treatment or Prophylaxis of diseases, for example Neurodegenerative diseases” (SmithKline Beecham plc, priority 2000, published 2008).

Tested on: primary cerebellar granule neurones
Experiment: Neuroprotection by agonists with or without cAMP inhibitor Rp-cAMP (FIG. 4)
Format: cell-based, rat
Settings: Rp-cAMP 100 μM; agonists 10 nM; LY 294002 75 μM
Method: FIG. 4 illustrates percentage mean survival of primary cerebellar granule neurones, when in the presence of the PI 3-kinase inhibitor LY 294002 (75 μM) and also a CRF receptor agonist at 10 nM (CRF, urocortin, urotensin 1, or sauvagine), in the absence or presence of the cAMP inhibitor Rp-cAMP (100 μM). The columns from left to right represent: (1) control without LY 294002 or agonist; (2) control without agonist but with LY 294002; (columns 3, 5, 7, 9) with LY 294002 and either CRF, urocortin, urotensin 1, or sauvagine respectively; (columns 4, 6, 8, 10) as columns 3, 5, 7 and 9 respectively but additionally also with Rp-cAMP. The approx. 20% reduction in neuroprotection when in the presence of Rp-cAMP is clear.

## Nc1ncnc2c1ncn2[C@@H]1O[C@@H]2CO[P@@](O)(=S)O[C@H]2[C@H]1O [Rp-cAMPS]
  reduction of neuronal rescue provided by the CRF receptor agonists: about 20%
